The source made the active and inactive calls. No cut-off for these calls is given here.
Columns and labels:
NCI-H460 = assay: Cytotoxicity against human NCI-H460 cells after 48 hrs by MTT assay; assay type: functional, cell-based; settings: NCI-H460, 48 h
Mus musculus = species on record: Mus musculus; assay: Inhibition of spontaneous calcium oscillations in Swiss Webster mouse neocortical neurons at 0.01 nM to 1000 nM measured for 2 mins by Fluo-3 AM dye based FLIPR assay

SMILES | IC50 (NCI-H460) [µM] | inhibition (Mus musculus)
C=CC[C@@H](C[C@@H](C[C@@H](C[C@@H](C[C@@H](C[C@@H](C[C@@H](C[C@@H](C[C@@H](C[C@@H](CCCCC)OC)OC)OC)OC)OC)OC)OC)OC)OC)OC | > 10 | –
NCCc1ccccc1 | – | Active
O=C(CCCCCC=C(Cl)Cl)NCCc1ccccc1 | > 10 | Active
